The text below walks through data of patent publication US20110105493A1, “HETEROCYCLYL SUBSTITUTED ARYLINDENOPYRIMIDINES AND THEIR USE AS HIGHLY SELECTIVE ADENOSINE A2a RECEPTOR ANTAGONISTS” (priority 2009, published 2011).

Assay [1] concerns the target T1, human adenosine A2A receptor (Homo sapiens, UniProt P29274).
T1 construct: expressed in transfected cells; host or cells: CHO-K1 cells with a cAMP inducible beta-galactosidase reporter gene
As to the kind of experiment: Adenosine A2A Receptor Functional Assay (A2A GAL2). Particulars: for IC50: CHO-K1 cells overexpressing human A2A receptor, cAMP inducible beta-galactosidase reporter, 15 nM NECA agonist challenge, read-out: A2AGal2; for A1/A2A: ratio of A1Gal2 to A2AGal2 values. In kind it is cell-based. On the procedure:
Adenosine A2A Receptor Functional Assay (A2A GAL2)
To initiate the functional assay, cryopreserved CHO—K1 cells overexpressing the human adenosine A2A receptor and containing a cAMP inducible beta-galactosidase reporter gene were thawed, centrifuged, DMSO containing media removed, and then seeded with fresh culture media into clear 384-well tissue culture treated plates (BD #353961) at a concentration of 10K cells/well. Prior to assay, these plates were cultured for two days at 37° C., 5% CO2, 90% Rh. On the day of the functional assay, culture media was removed and replaced with 45 μL assay medium (Hams/F-12 Modified (Mediatech # 10-080CV) supplemented w/0.1% BSA). Test compounds were diluted and 11 point curves created at a 1000× concentration in 100% DMSO. Immediately after addition of assay media to the cell plates, 50 nL of the appropriate test compound antagonist or agonist control curves were added to cell plates using a Cartesian Hummingbird. Compound curves were allowed to incubate at room temperature on cell plates for approximately 15 minutes before addition of a 15 nM NECA (Sigma E2387) agonist challenge (5 μL volume). A control curve of NECA, a DMSO/Media control, and a single dose of Forskolin (Sigma F3917) were also included on each plate. After additions, cell plates were allowed to incubate at 37° C., 5% CO2, 90% Rh for 5.5-6 hours. After incubation, media were removed, and cell plates were washed 1×50 μL with DPBS w/o Ca & Mg (Mediatech 21-031-CV). Into dry wells, 20 μL of 1×Reporter Lysis Buffer (Promega E3971 (diluted in dH2O from 5× stock)) was added to each well and plates frozen at −20° C. overnight. For β-galactosidase enzyme colorimetric assay, plates were thawed out at room temperature and 20 μL 2× assay buffer (Promega) was added to each well. Color was allowed to develop at 37° C., 5% CO2, 90% Rh for 1-1.5 h or until reasonable signal appeared. The colorimetric reaction was stopped with the addition of 60 μL/well 1M sodium carbonate. Plates were counted at 405 nm on a SpectraMax Microplate Reader (Molecular Devices). Data was analyzed in Microsoft Excel and IC/EC50 curves were fit using a standardized macro.

The target in assay [2] is T2, human adenosine A1 receptor (Homo sapiens, UniProt P30542).
T2 construct: expressed in transfected cells; host or cells: CHO-K1 cells with a cAMP inducible beta-galactosidase reporter gene
T2 sequence (P30542 1-326): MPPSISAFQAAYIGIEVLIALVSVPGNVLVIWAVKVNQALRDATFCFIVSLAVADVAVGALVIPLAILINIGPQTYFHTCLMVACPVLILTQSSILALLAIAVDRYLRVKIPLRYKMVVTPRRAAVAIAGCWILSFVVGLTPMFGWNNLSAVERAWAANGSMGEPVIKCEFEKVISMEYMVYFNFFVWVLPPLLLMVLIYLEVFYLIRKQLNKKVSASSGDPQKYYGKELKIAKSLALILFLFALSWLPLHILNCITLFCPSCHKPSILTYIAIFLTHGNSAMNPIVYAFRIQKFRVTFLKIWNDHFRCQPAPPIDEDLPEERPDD
As to the kind of experiment: Adenosine A1 Receptor Functional Assay (A1GAL2). In kind it is cell-based. Particulars: CHO-K1 cells overexpressing human A1 receptor, cAMP inducible beta-galactosidase reporter, 4 nM r-PIA/1 uM Forskolin agonist challenge. The procedure: Adenosine A1 Receptor Functional Assay (A1GAL2)
To initiate the functional assay, cryopreserved CHO—K1 cells overexpressing the human adenosine A1 receptor and containing a cAMP inducible beta-galactosidase reporter gene were thawed, centrifuged, DMSO containing media removed, and then seeded with fresh culture media into clear 384-well tissue culture treated plates (BD #353961) at a concentration of 10K cells/well. Prior to assay, these plates were cultured for two days at 37° C., 5% CO2, 90% Rh. On the day of the functional assay, culture media was removed and replaced with 45 μL assay medium (Hams/F-12 Modified (Mediatech # 10-080CV) supplemented w/0.1% BSA). Test compounds were diluted and 11 point curves created at a 1000× concentration in 100% DMSO. Immediately after addition of assay media to the cell plates, 50 nL of the appropriate test compound antagonist or agonist control curves were added to cell plates using a Cartesian Hummingbird. Compound curves were allowed to incubate at room temperature on cell plates for approximately 15 minutes before addition of a 4 nM r-PIA (Sigma P4532)/1 uM Forskolin (Sigma F3917) agonist challenge (5 μL volume). A control curve of r-PIA in1 uM Forskolin, a DMSO/Media control, and a single dose of Forskolin were also included on each plate. After additions, cell plates were allowed to incubate at 37° C., 5% CO2, 90% Rh for 5.5-6 hours. After incubation, media was removed, and cell plates were washed 1×50 μL with DPBS w/o Ca & Mg (Mediatech 21-031-CV). Into dry wells, 20 μL of 1×Reporter Lysis Buffer (Promega E3971 (diluted in dH2O from 5× stock)) was added to each well and plates frozen at −20° C. overnight. For β-galactosidase enzyme colorimetric assay, plates were thawed out at room temperature and 20 μL 2×assay buffer (Promega) was added to each well. Color was allowed to develop at 37° C., 5% CO2, 90% Rh for 1-1.5 h or until reasonable signal appeared. The colorimetric reaction was stopped with the addition of 60 μL/well 1M sodium carbonate. Plates were counted at 405 nm on a SpectraMax Microplate Reader (Molecular Devices). Data was analyzed in Microsoft Excel and IC/EC50 curves were fit using a standardized macro.

T1 sequence (P29274 whole entry): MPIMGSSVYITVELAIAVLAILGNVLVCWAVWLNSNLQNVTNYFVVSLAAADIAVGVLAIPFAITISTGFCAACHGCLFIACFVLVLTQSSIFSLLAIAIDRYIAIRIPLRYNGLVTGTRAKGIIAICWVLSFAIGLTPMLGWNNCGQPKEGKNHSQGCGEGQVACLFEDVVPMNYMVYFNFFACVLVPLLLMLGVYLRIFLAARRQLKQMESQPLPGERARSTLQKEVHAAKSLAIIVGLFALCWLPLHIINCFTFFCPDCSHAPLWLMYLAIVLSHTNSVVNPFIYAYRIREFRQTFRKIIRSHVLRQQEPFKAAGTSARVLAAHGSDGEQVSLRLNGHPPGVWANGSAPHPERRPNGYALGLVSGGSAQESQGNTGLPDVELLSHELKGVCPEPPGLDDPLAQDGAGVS

For the molecule `Nc1nc(-c2ccccc2)c2c(n1)-c1c(cccc1N1CCN(c3ccc(C(F)(F)F)cc3)CC1)C2=O` [Example 9, 2-Amino-4-phenyl-9-[4-(4-trifluoromethyl-phenyl)-piperazin-1-yl]-indeno[1,2-d]pyrimidin-5-one], in assay [1], the IC50 was 8.1 nM and the A1/A2A worked out at 765.432. The molecule further had an IC50 in assay [2] of 6200 nM.
Turning to `Nc1nc(-c2ccccc2)c2c(n1)-c1c(cccc1N1CCN(c3cccnc3)CC1)C2=O` [Example 26, 2-Amino-4-phenyl-9-(4-pyridin-3-yl-piperazin-1-yl)-indeno[1,2-d]pyrimidin-5-one], in assay [1], the IC50 is 0.6 nM and the A1/A2A was 51.6667. For the same molecule, the IC50 in assay [2] came to 31 nM.
As to `CCCN1CCN(c2cccc3c2-c2nc(N)nc(-c4ccccc4)c2C3=O)CC1` [Example 19, 2-Amino-4-phenyl-9-(4-propyl-piperazin-1-yl)-indeno[1,2-d]pyrimidin-5-one], in assay [1], the IC50 was 10.3 nM and the A1/A2A was 104.858. Besides, the IC50 in assay [2] was found to be 1080 nM.
The matching figures for `Nc1nc(-c2ccccc2)c2c(n1)-c1c(cccc1N1CCN(CC3CC3)CC1)C2=O` [Example 22, 2-Amino-9-(4-cyclopropylmethyl-piperazin-1-yl)-4-phenyl-indeno[1,2-d]pyrimidin-5-one]: 10.6 nM, 77.5711 and 818 nM.
As for `COc1ccc(N2CCN(c3cccc4c3-c3nc(N)nc(-c5ccccc5)c3C4=O)CC2)cc1` [Example 16, 2-Amino-9-[4-(4-methoxy-phenyl)-piperazin-1-yl]-4-phenyl-indeno[1,2-d]pyrimidin-5-one], in assay [1], the IC50 worked out at 0.14 nM and the A1/A2A was 178.571. In assay [2], this molecule returned an IC50 of 25 nM.
With `N#Cc1ccccc1N1CCN(c2cccc3c2-c2nc(N)nc(-c4ccccc4)c2C3=O)CC1` [Example 7, 2-[4-(2-Amino-5-oxo-4-phenyl-5H-indeno[1,2-d]pyrimidin-9-yl)-piperazin-1-yl]-benzonitrile], in assay [1], the IC50 was 2.7 nM and the A1/A2A was 1074.07. The same molecule came in with an IC50 in assay [2] of 2900 nM.
For `C=CCN1CCN(c2cccc3c2-c2nc(N)nc(-c4ccccc4)c2C3=O)CC1` [Example 23, 9-(4-Allyl-piperazin-1-yl)-2-amino-4-phenyl-indeno[1,2-d]pyrimidin-5-one], in that order: 12.5 nM, 60.0758 and 748 nM.
Regarding `N#Cc1ccc(N2CCN(c3cccc4c3-c3nc(N)nc(-c5ccccc5)c3C4=O)CC2)cc1` [Example 3, 4-[4-(2-Amino-5-oxo-4-phenyl-5H-indeno[1,2-d]pyrimidin-9-yl)-piperazin-1-yl]-benzonitrile], the IC50 in assay [1] is 0.6 nM; in assay [2], 3500 nM. Also, in assay [1], the A1/A2A is on record as 5833.33.
As for `N#Cc1ccc(N2CCN(c3cccc4c3-c3nc(N)nc(-c5ccccc5)c3C4=O)CC2)nc1` [Example 8, 6-[4-(2-Amino-5-oxo-4-phenyl-5H-indeno[1,2-d]pyrimidin-9-yl)-piperazin-1-yl]-nicotinonitrile], in assay [1], the IC50 was 2.7 nM and the A1/A2A is given as 777.778. The molecule further showed an IC50 in assay [2] of 2100 nM.
